In ChEMBL document CHEMBL5505996, “Discovery of novel osthole derivatives exerting anti-inflammatory effect on DSS-induced ulcerative colitis and LPS-induced acute lung injury in mice” (Eur J Med Chem, 2024):
≈ marks a conversion by molar mass, not a printed value. Calls of active or inactive are those of the source. No cut-off for these calls is given here.

Columns and labels:
[1] = system: J774.A1; experiment: Antiinflammatory activity against LPS-induced mouse J774.A1 cells assessed as inhibition of IL-6 release at 10 uM pretreated for 30 mins followed by LPS stimulation and measured after 24 hrs by ELISA relative to control; type: functional; conditions: time 24.5 hrs
[2] = system: Mus musculus; experiment: Antiinflammatory activity against C57BL/6 mouse model of DSS induced ulcerative colitis assessed as reversal of weight loss at 100 mg/kg, po administered daily for 10 days; type: functional, organism-based; conditions: time 10.0 day
[3] = system: Mus musculus; experiment: Antiinflammatory activity against C57BL/6 mouse model of DSS induced ulcerative colitis assessed as reduction in inflammatory cytokines infiltration in intestine at 100 mg/kg, po administered daily for 10 days by immunohistochemical staining based analysis; type: functional, organism-based; conditions: time 10.0 day
[4] = system: Mus musculus; experiment: Antiinflammatory activity against C57BL/6 mouse model of DSS induced ulcerative colitis assessed as reduction in IL-6 level in serum at 100 mg/kg, po administered daily for 10 days; type: functional, organism-based; conditions: time 10.0 day
[5] = system: Mus musculus; experiment: Antiinflammatory activity against C57BL/6 mouse model of DSS induced ulcerative colitis assessed as reversal of shortened intestinal length due to fecal obstruction at 100 mg/kg, po administered daily for 10 days; type: functional, organism-based; conditions: time 10.0 day
[6] = system: Mus musculus; experiment: (§1) Antiinflammatory activity against C57BL/6 mouse model of LPS induced acute lung injury assessed as reduction in total number of cells in BALF at 20 mg/kg, po administered every 12 hrs for 3 times followed by LPS stimulation for 6 hrs starting from 30 mins post last dose; type: functional, organism-based; conditions: time 42.5 hrs
[7] = system: Mus musculus; experiment: Antiinflammatory activity against C57BL/6 mouse model of LPS induced acute lung injury assessed as reduction in IL-6 mRNA expression in lung at 20 mg/kg, po administered every 12 hrs for 3 times followed by LPS stimulation for 6 hrs starting from 30 mins post last dose by RT-qPCR analysis; type: functional, organism-based; conditions: time 42.5 hrs
[8] = system: Mus musculus; experiment: as §1, with “pulmonary edema by measuring reduction” for “total number of cells”, “lung wet/dry ratio” for “BALF”; type: functional, organism-based; conditions: time 42.5 hrs
[9] = system: Mus musculus; experiment: Antiinflammatory activity against C57BL/6 mouse model of LPS induced acute lung injury assessed as reduction in TNF-alpha mRNA expression in lung at 20 mg/kg, po administered every 12 hrs for 3 times followed by LPS stimulation for 6 hrs starting from 30 mins post last dose by RT-qPCR analysis; type: functional, organism-based; conditions: time 42.5 hrs
[10] = system: Mus musculus; experiment: Antiinflammatory activity against C57BL/6 mouse model of LPS induced acute lung injury assessed as reduction in IL-6 level in BALF at 20 mg/kg, po administered every 12 hrs for 3 times followed by LPS stimulation for 6 hrs starting from 30 mins post last dose by ELISA; type: functional, organism-based; conditions: time 42.5 hrs
[11] = system: Mus musculus; experiment: Antiinflammatory activity against C57BL/6 mouse model of LPS induced acute lung injury assessed as reduction in IL-6 level in serum at 20 mg/kg, po administered every 12 hrs for 3 times followed by LPS stimulation for 6 hrs starting from 30 mins post last dose by ELISA; type: functional, organism-based; conditions: time 42.5 hrs
[12] = system: J774.A1; experiment: Antiinflammatory activity against LPS-induced mouse J774.A1 cells assessed as inhibition of IL-6 release at 10 uM pretreated for 30 mins followed by LPS stimulation and measured after 24 hrs by ELISA; type: functional, cell-based; conditions: time 24.5 hrs
[13] = Aqueous solubility of compound in phosphate buffer at pH 7.4 measured after 24 hrs by HPLC analysis; type: physicochemical
[14] = system: J774.A1; experiment: Antiinflammatory activity against LPS-induced mouse J774.A1 cells assessed as inhibition of TNF-alpha release at 1.25 to 10 uM pretreated for 30 mins followed by LPS stimulation and measured after 24 hrs by ELISA; type: functional, cell-based; conditions: dose 1.25-10 µM, time 24.5 hrs
[15] = system: J774.A1; experiment: Antiinflammatory activity against LPS-induced mouse J774.A1 cells assessed as inhibition of IL-6 release at 1.25 to 10 uM pretreated for 30 mins followed by LPS stimulation and measured after 24 hrs by ELISA; type: functional, cell-based; conditions: dose 1.25-10 µM, time 24.5 hrs
[16] = system: THP-1; experiment: Antiinflammatory activity against LPS-induced PMA-differentiated human THP-1 cells assessed as inhibition of TNF-alpha release at 5 to 40 uM pretreated for 30 mins followed by LPS stimulation and measured after 24 hrs by ELISA; type: functional, cell-based; conditions: dose 5-40 µM, time 24.5 hrs
[17] = system: THP-1; experiment: Antiinflammatory activity against LPS-induced PMA-differentiated human THP-1 cells assessed as inhibition of IL-6 release at 5 to 40 uM pretreated for 30 mins followed by LPS stimulation and measured after 24 hrs by ELISA; type: functional, cell-based; conditions: dose 5-40 µM, time 24.5 hrs
[18] = system: RAW264.7; experiment: Antiinflammatory activity against LPS-induced mouse RAW264.7 cells assessed as inhibition of TNF-alpha release pretreated for 30 mins followed by LPS stimulation and measured after 24 hrs by ELISA; type: functional, cell-based
[19] = system: RAW264.7; experiment: Antiinflammatory activity against LPS-induced mouse RAW264.7 cells assessed as inhibition of IL-6 release pretreated for 30 mins followed by LPS stimulation and measured after 24 hrs by ELISA; type: functional, cell-based
[20] = system: J774.A1; experiment: Cytotoxicity against mouse J774.A1 cells assessed as reduction in cell proliferation at 10 uM measured after 24 hrs by CCK-8 assay; type: toxicity, cell-based; conditions: j774.a1, 24 h

| SMILES | inhibition at 10 µM [1] [%] | also measured |
| --- | --- | --- |
| CC(C)=CCc1c(OCc2cccc(C)c2)ccc2ccc(=O)oc12 | 77.9 | – |
| CC(C)=CCc1c(OCC(=O)Nc2ccccc2)ccc2ccc(=O)oc12 | 48.5 | – |
| Nc1ccc(O)c(C(=O)O)c1 | – | Activity [2]: Active; Activity [3]: Active; Activity [4]: Active; Activity [5]: Active |
| CC(C)=CCc1c(OCc2ccc(C)cc2)ccc2ccc(=O)oc12 | 88.7 | – |
| CC(C)=CCc1c(OCCN2CCCC(C)C2)ccc2ccc(=O)oc12 (centres undefined) | 31.4 | – |
| CC(C)=CCc1c(OCCCCN2CCN(C)CC2)ccc2ccc(=O)oc12 | 82.3 | – |
| C[C@@H]1C[C@H]2[C@@H]3CCC4=CC(=O)C=C[C@]4(C)[C@@]3(F)[C@@H](O)C[C@]2(C)[C@@]1(O)C(=O)CO | – | Activity [6]: Active; Activity [7]: Active; Activity [8]: Active; Activity [9]: Active; Activity [10]: Active; Activity [11]: Active |
| CC(C)=CCc1c(OCCN2CCN(C)CC2)ccc2ccc(=O)oc12 | 69 | – |
| CC(C)=CCc1c(OCCN2CCCC2)ccc2ccc(=O)oc12 | – | Activity [12]: inactive |
| CC(C)=CCc1c(OCC(=O)NCCCN2CCOCC2)ccc2ccc(=O)oc12 | 21.5 | – |
| CC(C)=CCc1c(OCc2cccc(F)c2)ccc2ccc(=O)oc12 | 68.8 | – |
| CCN1CCN(C(=O)COc2ccc3ccc(=O)oc3c2CC=C(C)C)CC1 | 46 | – |
| COc1cccc(COc2ccc3ccc(=O)oc3c2CC=C(C)C)c1 | 80.2 | – |
| CC(C)=CCc1c(OCCNCCN2CCOCC2)ccc2ccc(=O)oc12 | 46.8 | – |
| CC(C)=CCc1c(OCCCN2CCCC2)ccc2ccc(=O)oc12 | 63.3 | – |
| CC(C)=CCc1c(OCCCN2CCOCC2)ccc2ccc(=O)oc12 | 69 | – |
| CC(C)=CCc1c(OCC2CC2)ccc2ccc(=O)oc12 | 64.2 | – |
| CC(C)=CCc1c(OCC2CCCO2)ccc2ccc(=O)oc12 (centres undefined) | 82.5 | – |
| COc1ccc2ccc(=O)oc2c1CC=C(C)C [OSTHOLE] | – | solubility at 24 h [13]: 10 µg/mL (≈ 40.9 µM); Activity [14]: inactive; Activity [15]: inactive; Activity [16]: inactive; Activity [17]: inactive; IC50 [18]: 113 µM; IC50 [19]: 146 µM |
| CCN1CCN(CCCOc2ccc3ccc(=O)oc3c2CC=C(C)C)CC1 | 92.2 | Activity [20]: Toxic |
| CC(C)=CCc1c(OCCN2CCCCC2)ccc2ccc(=O)oc12 | 10.6 | – |
| CC(C)=CCc1c(OCC2CCCCC2)ccc2ccc(=O)oc12 | 88 | – |
| CC(C)=CCc1c(OCCCN2CCN(C)CC2)ccc2ccc(=O)oc12 | 81.9 | – |
| CC(C)=CCc1c(OCCN(C)C)ccc2ccc(=O)oc12 | – | Activity [12]: inactive |
| CC(C)=CCc1c(OCC2CO2)ccc2ccc(=O)oc12 (centres undefined) | 82.3 | – |
| CCN1CCN(CCOc2ccc3ccc(=O)oc3c2CC=C(C)C)CC1 | 88.6 | – |
| CC(C)=CCc1c(OCCN2CCOCC2)ccc2ccc(=O)oc12 | 71.7 | – |
| CC(C)=CCc1c(OCC(=O)Nc2ccccc2Br)ccc2ccc(=O)oc12 | 88.3 | Activity [20]: Toxic |
